Test results: ChEMBL document CHEMBL1201862, “PubChem BioAssay data set” (2004)
Active and inactive are the calls of the source.

Key:
[1] = cytotoxicity in HEK-293T cells, dose response, cytotoxicity control for TCR NF-kB inhibitor project, luminescence, T-cell screen hits (AID 489026); assay type: functional, cell-based;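 note: cells exposed to compound about 14 hours before the viability readout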
[2] = molecular target: T1, Sphingosine 1-phosphate receptor 4 (Homo sapiens, UniProt O95977); assay: Fluorescence dose response cell-based high throughput screening assay for antagonists of the Sphingosine 1-Phosphate Receptor 4 (S1P4). [Related pubchem assays: 1524 (Confirmation in triplicates.), 1510 (Primary screen.)]; assay type: functional
T1 sequence (O95977 whole entry): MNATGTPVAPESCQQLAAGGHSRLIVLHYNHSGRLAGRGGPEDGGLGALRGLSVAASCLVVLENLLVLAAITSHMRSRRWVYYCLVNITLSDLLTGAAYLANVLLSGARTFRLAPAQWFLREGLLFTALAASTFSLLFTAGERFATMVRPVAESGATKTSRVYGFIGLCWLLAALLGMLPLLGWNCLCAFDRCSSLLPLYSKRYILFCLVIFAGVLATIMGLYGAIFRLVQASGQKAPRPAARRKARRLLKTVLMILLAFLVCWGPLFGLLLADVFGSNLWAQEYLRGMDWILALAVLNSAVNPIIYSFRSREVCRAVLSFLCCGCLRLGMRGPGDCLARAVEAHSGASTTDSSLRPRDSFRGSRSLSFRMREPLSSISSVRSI

Beta Lactamase = Beta Lactamase (Pseudomonas aeruginosa, UniProt Q932Y6); assay: beta-lactamase reporter inhibitor potency, dose response, artefact control for TLR9-MyD88 binding inhibitor project, BLA reporter cells, FRET fluorescence (AID 588341); assay type: cell-based;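 note: cell based assay in CHO-K1 cells stably expressing beta-lactamase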
Beta Lactamase, sequence (Q932Y6 whole entry, the tested form may be a part): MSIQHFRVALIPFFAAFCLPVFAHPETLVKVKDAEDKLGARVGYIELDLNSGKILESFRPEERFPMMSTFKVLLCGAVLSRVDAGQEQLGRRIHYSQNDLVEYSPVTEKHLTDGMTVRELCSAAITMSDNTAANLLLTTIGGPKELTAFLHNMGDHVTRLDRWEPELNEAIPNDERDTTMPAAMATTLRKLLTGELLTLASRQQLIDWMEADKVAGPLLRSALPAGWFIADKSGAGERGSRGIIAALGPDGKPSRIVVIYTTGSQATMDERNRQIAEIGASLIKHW

CHO = assay: cytotoxicity in TLR9-MyD88 CHO cells, dose response, cytotoxicity control for TLR9-MyD88 binding inhibitor project, cell-based, luminescence (AID 588339); assay type: functional, hamster; conditions: Cricetulus griseus;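 note: CHO cells stably coexpressing TLR9 and MyD88 fusions from primary screen; compound exposure lasted 48 hours before viability readout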
[3] = control 3'UTR Renilla luciferase suppression, dose response, counter-screen for Shn3 inhibitor project, cell-based, Clone20-Shn3RL, cherry-picked (AID 624133); assay type: functional
[4] = molecular target: Sphingosine 1-phosphate receptor 1 (Homo sapiens, UniProt P21453); assay type: functional;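 note: Tango beta-arrestin reporter U2OS cells stimulated with S1P near its EC80; inhibitor potency meaning antagonism of receptor activation by the natural agonist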
Sphingosine 1-phosphate receptor 1, sequence (P21453 whole entry): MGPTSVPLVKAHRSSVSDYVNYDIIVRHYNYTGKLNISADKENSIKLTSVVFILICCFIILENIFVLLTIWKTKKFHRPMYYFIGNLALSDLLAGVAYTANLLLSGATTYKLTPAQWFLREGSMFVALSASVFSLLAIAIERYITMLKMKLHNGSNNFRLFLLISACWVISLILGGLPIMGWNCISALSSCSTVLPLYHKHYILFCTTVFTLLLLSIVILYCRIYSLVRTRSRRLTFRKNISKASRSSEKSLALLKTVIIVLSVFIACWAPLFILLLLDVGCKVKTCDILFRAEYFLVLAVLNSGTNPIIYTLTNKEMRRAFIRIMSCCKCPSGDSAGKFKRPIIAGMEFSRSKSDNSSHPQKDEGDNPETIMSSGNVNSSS

[5] = Shn3 3'UTR reporter inhibitors, dose response, cell-based, Clone20 osteoblasts, firefly luciferase, cherry-picked (AID 624132); assay type: functional;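 note: firefly luciferase luminescence from reporter carrying the Shn3 3'UTR in osteoblasts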
[6] = molecular target: Sphingosine 1-phosphate receptor 2 (Homo sapiens, UniProt O95136); assay: Dose Response Cell Based Assay for Antagonists of the S1P2 Receptor. [Related pubchem assays: 856, 736 ]; assay type: functional
Sphingosine 1-phosphate receptor 2, sequence (O95136 whole entry): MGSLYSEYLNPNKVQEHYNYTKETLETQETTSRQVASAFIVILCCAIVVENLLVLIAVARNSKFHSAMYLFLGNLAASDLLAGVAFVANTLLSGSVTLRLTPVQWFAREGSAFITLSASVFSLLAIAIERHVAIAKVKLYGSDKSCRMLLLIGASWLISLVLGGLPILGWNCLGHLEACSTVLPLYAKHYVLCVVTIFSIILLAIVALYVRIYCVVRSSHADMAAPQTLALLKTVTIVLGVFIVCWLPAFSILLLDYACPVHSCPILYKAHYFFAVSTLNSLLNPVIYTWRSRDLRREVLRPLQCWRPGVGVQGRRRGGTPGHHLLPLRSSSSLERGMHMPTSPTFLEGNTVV

[7] = molecular target: T2, Replicative DNA helicase DnaB (Mycobacterium tuberculosis, UniProt P9WMR3); assay: DnaB intein splicing inhibitors, dose response, biochemical, cell-free fluorescence (AID 449749); assay type: functional
T2 sequence (P9WMR3 whole entry): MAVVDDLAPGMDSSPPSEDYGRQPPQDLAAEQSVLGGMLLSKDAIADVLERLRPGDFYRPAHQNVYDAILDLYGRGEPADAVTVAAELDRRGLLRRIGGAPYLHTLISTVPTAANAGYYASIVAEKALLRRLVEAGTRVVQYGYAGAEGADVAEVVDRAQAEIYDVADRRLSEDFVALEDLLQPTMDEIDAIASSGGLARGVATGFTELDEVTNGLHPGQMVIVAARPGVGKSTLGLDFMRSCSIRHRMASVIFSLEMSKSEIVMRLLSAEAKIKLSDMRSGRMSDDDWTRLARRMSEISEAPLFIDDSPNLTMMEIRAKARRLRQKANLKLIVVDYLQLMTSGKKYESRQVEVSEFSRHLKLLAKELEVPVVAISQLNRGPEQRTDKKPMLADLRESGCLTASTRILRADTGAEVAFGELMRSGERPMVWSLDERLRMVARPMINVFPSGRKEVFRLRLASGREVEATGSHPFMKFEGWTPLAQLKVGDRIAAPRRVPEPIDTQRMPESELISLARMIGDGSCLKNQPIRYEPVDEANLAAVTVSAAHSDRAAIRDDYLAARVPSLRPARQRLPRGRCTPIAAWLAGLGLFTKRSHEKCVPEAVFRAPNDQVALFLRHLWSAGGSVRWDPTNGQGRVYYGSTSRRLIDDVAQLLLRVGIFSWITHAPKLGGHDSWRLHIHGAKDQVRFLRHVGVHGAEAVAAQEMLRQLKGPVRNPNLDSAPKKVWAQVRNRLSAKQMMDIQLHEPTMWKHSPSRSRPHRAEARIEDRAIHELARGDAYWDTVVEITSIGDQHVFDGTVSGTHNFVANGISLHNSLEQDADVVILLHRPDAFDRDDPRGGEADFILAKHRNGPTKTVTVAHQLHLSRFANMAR

Protein RecA = molecular target: T3, Protein RecA (Mycobacterium tuberculosis, UniProt P9WHJ3); assay: Fluorescence Cell-Free Homogeneous Dose Retest to Identify Inhibitors of RecA-Intein Splicing Activity. [Related pubchem assays (depositor defined):AID2097, AID2223, AID489010, AID492950]; assay type: functional
T3 sequence (P9WHJ3 whole entry): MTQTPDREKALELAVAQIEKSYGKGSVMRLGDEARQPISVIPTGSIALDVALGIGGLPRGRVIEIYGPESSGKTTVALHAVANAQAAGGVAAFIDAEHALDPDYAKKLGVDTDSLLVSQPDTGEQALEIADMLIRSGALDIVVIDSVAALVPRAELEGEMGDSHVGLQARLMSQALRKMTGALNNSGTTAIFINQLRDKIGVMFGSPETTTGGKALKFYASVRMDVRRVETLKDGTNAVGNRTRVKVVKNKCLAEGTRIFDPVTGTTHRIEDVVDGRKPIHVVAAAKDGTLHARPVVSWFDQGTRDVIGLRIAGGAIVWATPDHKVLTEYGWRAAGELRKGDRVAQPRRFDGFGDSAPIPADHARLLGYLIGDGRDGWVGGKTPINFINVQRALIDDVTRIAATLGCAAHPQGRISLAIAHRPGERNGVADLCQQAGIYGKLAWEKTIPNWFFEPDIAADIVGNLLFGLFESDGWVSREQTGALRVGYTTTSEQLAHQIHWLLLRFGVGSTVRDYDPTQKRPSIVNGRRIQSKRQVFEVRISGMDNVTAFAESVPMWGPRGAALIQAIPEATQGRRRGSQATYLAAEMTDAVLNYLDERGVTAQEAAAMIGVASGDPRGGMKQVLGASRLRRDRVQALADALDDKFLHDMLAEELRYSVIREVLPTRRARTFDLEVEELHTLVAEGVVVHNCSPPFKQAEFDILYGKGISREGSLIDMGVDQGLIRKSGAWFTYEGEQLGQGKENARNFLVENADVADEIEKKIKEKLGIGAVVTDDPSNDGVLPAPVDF

[8] = HepG2 cell cytotoxicity, dose response, cytotoxicity control for Shn3 inhibitor project, CellTiter-Glo, cherry-picked (AID 624134); assay type: functional, cell-based
[9] = molecular target: T4, Sentrin-specific protease 6 (Homo sapiens, UniProt Q9GZR1); assay: SAR Analysis of small molecule inhibitors of Sentrin-specific protease 6 (SENP6) using a Luminescent assay. [Related pubchem assays (depositor defined):AID2582, AID2599]; assay type: functional
T4 sequence (Q9GZR1 whole entry): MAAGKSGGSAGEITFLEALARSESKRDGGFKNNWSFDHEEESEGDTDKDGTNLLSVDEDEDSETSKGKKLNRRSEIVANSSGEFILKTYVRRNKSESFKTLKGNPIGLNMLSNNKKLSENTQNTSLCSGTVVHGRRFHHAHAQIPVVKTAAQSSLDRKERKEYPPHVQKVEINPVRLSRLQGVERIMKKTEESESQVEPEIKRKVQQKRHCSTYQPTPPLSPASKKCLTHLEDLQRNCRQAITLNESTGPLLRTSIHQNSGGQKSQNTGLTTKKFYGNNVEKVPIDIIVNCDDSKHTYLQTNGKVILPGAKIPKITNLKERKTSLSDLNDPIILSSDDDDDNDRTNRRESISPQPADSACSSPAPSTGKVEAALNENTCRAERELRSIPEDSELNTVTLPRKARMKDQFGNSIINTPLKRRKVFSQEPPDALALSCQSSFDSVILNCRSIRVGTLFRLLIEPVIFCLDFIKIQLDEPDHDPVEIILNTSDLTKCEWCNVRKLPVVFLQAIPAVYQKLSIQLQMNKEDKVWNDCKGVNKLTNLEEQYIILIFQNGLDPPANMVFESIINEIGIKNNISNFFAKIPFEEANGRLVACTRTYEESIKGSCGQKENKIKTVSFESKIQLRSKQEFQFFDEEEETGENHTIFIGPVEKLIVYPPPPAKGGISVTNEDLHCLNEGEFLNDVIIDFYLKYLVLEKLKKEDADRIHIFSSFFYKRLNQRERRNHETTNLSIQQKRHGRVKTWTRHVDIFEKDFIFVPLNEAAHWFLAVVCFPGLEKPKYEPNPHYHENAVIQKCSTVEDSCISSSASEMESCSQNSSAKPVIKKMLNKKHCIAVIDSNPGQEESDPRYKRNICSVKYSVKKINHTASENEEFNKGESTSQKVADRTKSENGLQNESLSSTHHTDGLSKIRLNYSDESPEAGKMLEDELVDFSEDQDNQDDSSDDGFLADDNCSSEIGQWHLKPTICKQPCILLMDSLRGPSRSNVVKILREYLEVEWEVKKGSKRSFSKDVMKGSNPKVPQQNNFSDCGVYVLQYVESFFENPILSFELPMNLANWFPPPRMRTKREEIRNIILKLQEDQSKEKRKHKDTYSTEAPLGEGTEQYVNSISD

[10] = molecular target: T5, Sentrin-specific protease 8 (Homo sapiens, UniProt Q96LD8); assay: SENP8 protease inhibitors, SAR follow-up, biochemical, luminescence (AID 504501); assay type: functional
T5 sequence (Q96LD8 whole entry): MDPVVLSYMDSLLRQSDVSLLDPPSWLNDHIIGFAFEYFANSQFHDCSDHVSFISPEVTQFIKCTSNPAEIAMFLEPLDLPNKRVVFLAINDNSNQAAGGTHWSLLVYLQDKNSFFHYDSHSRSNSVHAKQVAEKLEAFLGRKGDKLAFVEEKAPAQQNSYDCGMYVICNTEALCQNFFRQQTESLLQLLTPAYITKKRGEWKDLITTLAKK

[11] = molecular target: T6, Sentrin-specific protease 7 (Homo sapiens, UniProt Q9BQF6); assay: SENP7 protease inhibitors, SAR follow-up, biochemical, luminescence (AID 504497); assay type: functional
T6 sequence (Q9BQF6 whole entry): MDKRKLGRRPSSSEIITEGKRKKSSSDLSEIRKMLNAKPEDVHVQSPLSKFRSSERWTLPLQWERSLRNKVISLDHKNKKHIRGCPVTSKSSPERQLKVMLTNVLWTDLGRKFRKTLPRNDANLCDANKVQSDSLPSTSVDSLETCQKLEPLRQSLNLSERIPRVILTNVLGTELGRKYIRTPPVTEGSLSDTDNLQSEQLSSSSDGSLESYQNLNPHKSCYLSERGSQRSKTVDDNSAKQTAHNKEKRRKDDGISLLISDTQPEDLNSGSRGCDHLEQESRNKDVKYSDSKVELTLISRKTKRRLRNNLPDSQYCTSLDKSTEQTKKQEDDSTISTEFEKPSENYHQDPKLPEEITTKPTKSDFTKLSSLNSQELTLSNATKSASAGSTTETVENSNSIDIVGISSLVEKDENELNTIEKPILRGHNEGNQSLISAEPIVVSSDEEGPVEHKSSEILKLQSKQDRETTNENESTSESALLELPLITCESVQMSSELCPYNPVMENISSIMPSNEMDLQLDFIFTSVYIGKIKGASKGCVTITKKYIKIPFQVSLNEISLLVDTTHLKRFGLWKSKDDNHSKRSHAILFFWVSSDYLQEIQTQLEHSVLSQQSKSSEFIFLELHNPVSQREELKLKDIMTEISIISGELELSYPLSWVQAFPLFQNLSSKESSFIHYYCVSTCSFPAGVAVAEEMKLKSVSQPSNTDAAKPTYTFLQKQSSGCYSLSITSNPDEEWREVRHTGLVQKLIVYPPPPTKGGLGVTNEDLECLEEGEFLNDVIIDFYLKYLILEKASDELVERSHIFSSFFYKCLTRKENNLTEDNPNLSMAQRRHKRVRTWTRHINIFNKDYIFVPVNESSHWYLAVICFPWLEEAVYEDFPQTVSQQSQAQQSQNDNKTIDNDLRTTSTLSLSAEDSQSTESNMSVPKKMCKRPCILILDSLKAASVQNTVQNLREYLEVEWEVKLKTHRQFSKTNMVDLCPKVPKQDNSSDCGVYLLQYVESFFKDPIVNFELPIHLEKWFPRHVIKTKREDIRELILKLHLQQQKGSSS

Caspase-3 = molecular target: T7, Caspase-3 (Homo sapiens, UniProt P42574); assay: SAR Analysis of small molecule inhibitors of Sentrin-specific proteases (SENPs) using a Caspase-3 Selectivity assay. [Related pubchem assays (depositor defined):AID2540, AID2599, AID434973, AID489001]; assay type: functional
T7 sequence (P42574 whole entry): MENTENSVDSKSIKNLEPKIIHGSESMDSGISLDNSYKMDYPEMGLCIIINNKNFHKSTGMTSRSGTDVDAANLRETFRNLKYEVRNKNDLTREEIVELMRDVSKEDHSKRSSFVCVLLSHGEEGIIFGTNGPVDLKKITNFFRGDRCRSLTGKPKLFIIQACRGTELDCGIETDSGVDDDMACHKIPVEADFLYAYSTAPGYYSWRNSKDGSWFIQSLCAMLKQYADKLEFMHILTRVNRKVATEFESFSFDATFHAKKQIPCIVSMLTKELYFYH

| Structure (SMILES) | IC50 [1] | IC50 [2] | IC50 (Beta Lactamase) | IC50 (CHO) | AC50 [3] | IC50 [4] | AC50 [5] | IC50 [6] | AC50 [7] | EC50 (Protein RecA) | AC50 [8] | IC50 [9] | IC50 [10] | IC50 [11] | IC50 (Caspase-3) |
| --- | --- | --- | --- | --- | --- | --- | --- | --- | --- | --- | --- | --- | --- | --- | --- |
| COc1ccc(CS(=O)(=O)/C(Cl)=C(/Cl)C(=O)Nc2ccc(OC)nc2)cc1 | 27.9 µM (inactive) | 0.852 µM (active) | > 49.7 µM (inactive) | 2.03 µM (active) | 6.84 µM (active) | 6.21 µM (active) | < 0.26 µM (active) | 1.67 µM (active) | 3.88 µM (active) | 3.34 µM (active) | 10.6 µM (active) | – | – | – | – |
| CCOc1ccc2nc(NC(=O)c3nc(SC(C)C)ncc3Cl)sc2c1 | – | – | – | – | – | – | – | – | – | – | – | > 99 µM (inactive) | > 99 µM (inactive) | > 99 µM (inactive) | > 99 µM (inactive) |
